Experimental data reported in patent US11505798B2, “Methods and compositions for treating inflammatory diseases” (The Regents of the University of California, priority 2019, dated 2022).

System: GAPLINC
Experiment: qPCR of GAPLINC in MDMs pretreated with NF-κB inhibitor, then LPS stimulation
Type: cell-based, human
Details: MDMs pretreated with 10 uM, LPS 200 ng/ml for 6 h, vs DMSO
Text: FIGS. 14A-14I show monocytes isolated from human PBMCs and differentiated into macrophages were transfected with control or GAPLINC siRNA. […] Data from RNA-seq performed in biological duplicates. FIG. 14C: GAPLINC isoforms in MDMs as determined by Nanopore-based R2C2 sequencing. Data from Nanopore-sequencing performed in biological duplicates. FIG. 14D: Table representing read counts and percent of each GAPLINC isoform. FIG. 14E: Bi-directional vector expressing GFP-Zeocin on one side and GAPLINC on the other side. FIGS. 14F and 14G: qPCR analysis of GAPLINC expression in THP-1 cells expressing ectopic GAPLINC or empty-vector control. Levels of IL6 were quantified following stimulation with LPS (200 ng/ml) for 6 h; data pooled from three independent experiments. *p<0.05. FIG. 14H: qPCR analysis of GAPLINC in MDMs (n=3) pretreated with DMSO or BAY-7082 (10 uM), followed by LPS stimulation (200 ng/ml) for 6 h; data pooled from three independent experiments. *p<0.05. FIG. 14I: ATAC-seq analysis of monocytes and macrophages, untreated and treated with LPS (200 ng/ml) for 1 h, 6 h and 18 h.
Next, we examined GAPLINC levels in primary MDMs in response to inflammation. […] Induction of positive control inflammatory genes TNFα, IL6, and CCL5 was confirmed (FIGS. 16B-16D). […]

Cc1ccc(S(=O)(=O)/C=C/C#N)cc1 [BAY11-7082]
downregulation of GAPLINC upon LPS stimulation: impaired relative to control
